The target in assay [1] is T1, E3 ubiquitin-protein ligase XIAP (Homo sapiens, UniProt P98170). The assay is described as follows: Binding affinity to the BIR3 domain of X-linked IAP.
Assay [2] in a line: The compound was tested for toxicity against human breast cancer cell line MDA-MB-231. Conditions: cancer cell lines. It counts as functional, cell-based.
Assay [3] can be described thus: The compound was tested for toxicity against human NSCL cancer cell line NCI-H23. It counts as functional, cell-based. Conditions: cancer cell lines.
A further assay deals with HL-60. In words: cells. Conditions: Homo sapiens.
A short description of assay [4]: The compound was tested for toxicity against human ovarian cancer cell line SK-OV-3. It counts as functional, cell-based. Conditions: cancer cell lines.
Assay [5] in a line: The compound was tested for toxicity against human NSCL cancer cell line NCI-H522. It counts as functional, cell-based. Conditions: cancer cell lines.
Assay [6] in a line: The compound was tested for toxicity against human breast cancer cell line BT-549. Conditions: cancer cell lines. It counts as functional, cell-based.
The nature of assay [7]: The compound was tested for toxicity against human renal cancer cell line RXF-393. It counts as functional, cell-based. Conditions: cancer cell lines.
A further assay has as its system SK-MEL-5. The assay is described as follows: cells. Conditions: Homo sapiens.
Assay [8] deals with T1, E3 ubiquitin-protein ligase XIAP. The assay is described as follows: Relief of caspase inhibition in reconstituted assay (APAF-1, caspase-9, procaspase-3) with BIR3 domain of XIAP.
The target is the same in assay [9]. In words: Relief of caspase inhibition in reconstituted assay (APAF-1, caspase-9, procaspase-3) with XIAP.

“And” between values parts separate entries of the source, which are not always exact repeats. Equal values may be shown once. Numbered stars: 1 amine (or outer) side, 2 acyl side, 3 side chain; on linkers, the order of the positions; unused ones are H or OH. Square brackets hold non-standard residues; d marks the D form. Peptide text beside a SMILES is read from it. ξ: configuration not given here. Phe(4-Cl) = N[C@@H](Cc1ccc(Cl)cc1)C(=O)O; 1Nal = N[C@@H](Cc1cccc2ccccc12)C(=O)O; 2Nal = N[C@@H](Cc1ccc2ccccc2c1)C(=O)O; X1 = O=C([C@@H]1CC(O)CN1[*:1])[*:2]; hPhe = N[C@@H](CCc1ccccc1)C(=O)O; Phg = N[C@H](C(=O)O)c1ccccc1; Tle = CC(C)(C)[C@H](N)C(=O)O; Nle = CCCC[C@H](N)C(=O)O; ξPip = O=C(O)C1CCCCN1; Aib = CC(C)(N)C(=O)O; ξNMeA = CNC(C)C(=O)O; ξAze = O=C(O)C1CCN1; Sar = CNCC(=O)O

T1 sequence (P98170 whole entry, the tested form may be a part): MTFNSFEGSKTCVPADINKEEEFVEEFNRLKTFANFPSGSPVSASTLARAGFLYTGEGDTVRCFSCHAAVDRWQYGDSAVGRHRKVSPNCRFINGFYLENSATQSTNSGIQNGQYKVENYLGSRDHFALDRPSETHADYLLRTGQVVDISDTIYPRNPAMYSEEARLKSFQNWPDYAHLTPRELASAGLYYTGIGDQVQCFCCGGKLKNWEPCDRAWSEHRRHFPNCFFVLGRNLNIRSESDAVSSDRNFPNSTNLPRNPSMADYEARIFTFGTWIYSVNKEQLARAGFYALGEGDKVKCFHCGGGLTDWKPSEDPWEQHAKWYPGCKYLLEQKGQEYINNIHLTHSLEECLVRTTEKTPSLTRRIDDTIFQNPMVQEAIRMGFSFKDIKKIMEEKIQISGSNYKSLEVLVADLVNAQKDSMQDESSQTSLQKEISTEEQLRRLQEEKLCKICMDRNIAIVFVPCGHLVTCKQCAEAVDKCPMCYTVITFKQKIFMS
Description for HL-60: The compound was tested for toxicity against human leukemia cancer cell line HL-60
Description for SK-MEL-5: The compound was tested for toxicity against human melanoma cancer cell line SK-MEL-5

As a reminder, the Kd is the concentration at which binding is half-saturated. `CC(C)[C@H](NC(=O)[C@H](C)N)C(=O)N1CCC[C@H]1C(=O)N[C@@H](Cc1ccc2ccccc2c1)C(=O)N[C@@H](Cc1ccc(O)cc1)C(=O)O` (H-AVP[2Nal]Y-OH) showed a Kd in assay [1] of 190 nM. Still for that read-out and setting: the figure for `CC(C)[C@@H](NC(=O)[C@H](C)N)C(=O)N1CCC[C@H]1C(=O)N[C@@H](Cc1ccccc1)C(=O)N[C@@H](Cc1ccc(O)cc1)C(=O)O` is 90 nM and 120 nM; for `CC(C)[C@H](NC(=O)[C@H](C)N)C(=O)N1CCCCC1C(=O)N[C@@H](Cc1ccccc1)C(=O)N[C@@H](Cc1ccc(O)cc1)C(=O)O` (some centres not stated) (H-AV[ξPip]FY-OH) it is 400 nM. On the same count and under the same terms, to H-AVPYY-OH belongs 300 nM; to `CN[C@@H](C)C(=O)N[C@H](C(=O)N1CCC[C@H]1C(=O)NC1c2ccccc2-c2ccccc21)C(C)(C)C`, 40 nM. In the case of `CC(C)[C@H](NC(=O)[C@H](C)N)C(=O)N1CCC[C@H]1C(=O)NC(C)(C)C(=O)N[C@@H](Cc1ccc(O)cc1)C(=O)O` (H-AVP[Aib]Y-OH), the Kd in assay [1] is 6700 nM. Still for that read-out and setting: to `CC(C)C(NC(=O)[C@H](C)N)C(=O)N1CCC[C@H]1C(=O)N[C@@H](Cc1ccccc1)C(=O)N[C@@H](Cc1ccc(O)cc1)C(=O)O` (single isomer, unassigned) belongs more than 20000 nM. Same read-out and setting: the figure for `C[C@H](N)C(=O)NC(C)(C)C(=O)N1CCC[C@H]1C(=O)N[C@@H](Cc1ccccc1)C(=O)N[C@@H](Cc1ccc(O)cc1)C(=O)O` (H-A[Aib]PFY-OH) is more than 20000 nM; for `CC(C)C[C@@H](NC(=O)[C@H](C)N)C(=O)N1CCC[C@H]1C(=O)N[C@@H](Cc1ccccc1)C(=O)N[C@@H](Cc1ccc(O)cc1)C(=O)O` it is 160 nM.

Consider H-AVGFY-OH, for which the Kd in [1] was determined as 3000 nM.

Take `CC(C)[C@H](NC(=O)[C@H](C)N)C(=O)N(C)C(C)C(=O)N[C@@H](Cc1ccccc1)C(=O)N[C@@H](Cc1ccc(O)cc1)C(=O)O` (some centres not stated) (H-AV[ξNMeA]FY-OH): the dissociation constant Kd in [1] was determined as 1600 nM.

With `CC(C)[C@H](NC(=O)[C@H](C)N)C(=O)N1CCC[C@H]1C(=O)N[C@H](C(=O)N[C@@H](Cc1ccc(O)cc1)C(=O)O)c1ccccc1` (H-AVP[Phg]Y-OH), in assay [1], binding was put at a Kd of 30 nM. The EC50 is the concentration needed to bring the measured effect to its halfway point. As to `CN[C@@H](C)C(=O)N[C@H](C(=O)N1CCC[C@H]1C(=O)N[C@@H]1CCCc2ccccc21)C(C)(C)C`, the EC50 turned out to be 60 nM in assay [2]; 5300 nM in assay [3]; 990 nM with HL-60; 1500 nM in assay [4]; 1700 nM in [5]; 10 nM in [6]. Also, the results for the EC50 (in assay [7]; in the assay on SK-MEL-5) were 810 nM and 1300 nM, respectively. For `CN[C@@H](C)C(=O)N[C@H](C(=O)N1CCC[C@H]1C(=O)N[C@H]1CCCc2ccccc21)C(C)(C)C`, the EC50 was 3000 nM in assay [2] and 5600 nM in assay [4]. Regarding `CN[C@@H](C)C(=O)N[C@H](C(=O)N1CCC[C@H]1C(=O)N[C@@H]1CCCc2ccccc21)C1CCCCC1`, the EC50 in [2] worked out at 10 nM; in [3], 1500 nM; in the assay with HL-60 it was 190 nM; in [4], 1300 nM; in assay [5], 2000 nM; in assay [6], 7 nM. Moreover, the values for the EC50 (in assay [7]; in the assay with SK-MEL-5) were 1100 nM and 290 nM, respectively. On to H-GVPFY-OH, for which the Kd in assay [1] was determined as 9600 nM.

Take H-AVPIY-OH: the Kd in assay [1] is 360 nM. In turn, `CC(C)[C@H](NC(=O)[C@H](C)N)C(=O)NC(C)(C)C(=O)N[C@@H](Cc1ccccc1)C(=O)N[C@@H](Cc1ccc(O)cc1)C(=O)O` (H-AV[Aib]FY-OH) showed a Kd in assay [1] of more than 20000 nM.

For H-AVPLY-OH, binding in [1] was characterised by a dissociation constant (Kd) of 280 nM.

H-AVPFG-OH: binding in assay [1] was characterised by a dissociation constant (Kd) of 3400 nM.

On to `CC(C)[C@H](NC(=O)[C@H](C)N)C(=O)N1CCC[C@H]1C(=O)N[C@@H](Cc1cccc2ccccc12)C(=O)N[C@@H](Cc1ccc(O)cc1)C(=O)O` (H-AVP[1Nal]Y-OH), for which the Kd in assay [1] amounted to 90 nM. The same measure, in the same setting: the figure for H-AKPFY-OH is 50 nM; for `CC(C)[C@H](NC(=O)[C@H](C)N)C(=O)N1CCC[C@H]1C(=O)N[C@@H](CCc1ccccc1)C(=O)N[C@@H](Cc1ccc(O)cc1)C(=O)O` (H-AVP[hPhe]Y-OH) it is 180 nM. On to `CN[C@@H](C)C(=O)N[C@H](C(=O)N1CCC[C@H]1C(=O)N[C@@H]1CCc2ccccc21)C(C)(C)C`, for which the Kd in assay [1] turned out to be 20 nM. The same measure, in the same setting: the figure for `CC(C)[C@H](NC(=O)[C@H](C)N)C(=O)N1CC(O)C[C@H]1C(=O)N[C@@H](Cc1ccccc1)C(=O)N[C@@H](Cc1ccc(O)cc1)C(=O)O` (some centres not stated) (H-AV[X1]FY-OH) is 800 nM. With `CNC(C)C(=O)N[C@H](C(=O)N1CCC[C@H]1C(=O)N[C@@H]1CCCc2ccccc21)C(C)(C)C` (single isomer, unassigned), the EC50 was 8300 nM in [2] and more than 50000 nM in [4]. `CC(C)[C@H](NC(=O)[C@H](C)N)C(=O)N1CCC[C@H]1C(=O)N[C@@H](Cc1ccc(Cl)cc1)C(=O)N[C@@H](Cc1ccc(O)cc1)C(=O)O` (H-AVP[Phe(4-Cl)]Y-OH) displayed a dissociation constant Kd in assay [1] of 180 nM. Take `CC(C(=O)N1CCC[C@H]1C(=O)N[C@@H](Cc1ccccc1)C(=O)N[C@@H](Cc1ccc(O)cc1)C(=O)O)N(C)C(=O)[C@H](C)N` (some centres not stated) (H-A[ξNMeA]PFY-OH): the Kd in assay [1] is more than 20000 nM.

On to H-AGPFY-OH, for which, in assay [1], binding was put at a Kd of 2700 nM. The same measure, in the same setting: to `CC(C)[C@@H](C(=O)N1CCC[C@H]1C(=O)N[C@@H](Cc1ccccc1)C(=O)N[C@@H](Cc1ccc(O)cc1)C(=O)O)N(C)C` belongs 8700 nM. Regarding `CC(C(=O)N[C@H](C(=O)N1C[C@@H](Oc2ccccc2)C[C@H]1C(=O)NC1CCCc2ccccc21)C(C)(C)C)N(C)C` (some centres not stated), the EC50 in assay [8] and in assay [9] was more than 100000 nM each time. Also, the Kd in [1] is more than 1000 nM. With H-VVPFY-OH, in [1], binding was put at a Kd of 900 nM.

Take `CCCC[C@H](NC(=O)[C@@H]1CCCN1C(=O)[C@@H](NC(=O)[C@H](C)N)C(C)C)C(=O)N[C@@H](Cc1ccc(O)cc1)C(=O)O` (H-AVP[Nle]Y-OH): in assay [1], the Kd turned out to be 900 nM.

In the case of `CC(C)[C@H](NC(=O)[C@H](C)N)C(=O)N(C)CC(=O)N[C@@H](Cc1ccccc1)C(=O)N[C@@H](Cc1ccc(O)cc1)C(=O)O` (H-AV[Sar]FY-OH), the affinity in assay [1], expressed as Kd, was 600 nM. The same measure, in the same setting: the figure for `CC(C)[C@H](NC(=O)[C@H](C)N)C(=O)N1CCC1C(=O)N[C@@H](Cc1ccccc1)C(=O)N[C@@H](Cc1ccc(O)cc1)C(=O)O` (some centres not stated) (H-AV[ξAze]FY-OH) is 120 nM. Consider `C[C@@H](C(=O)N[C@H](C(=O)N1CCC[C@H]1C(=O)N[C@@H]1CCCc2ccccc21)C1CCCCC1)N(C)C`, for which the EC50 in assay [2] was 3400 nM; in assay [3], more than 50000 nM; in the assay with HL-60, 4300 nM; in [4], more than 25000 nM; in assay [5] it was more than 50000 nM; in assay [6], 1000 nM. Besides, the EC50 in assay [7] is more than 50000 nM; in the assay on SK-MEL-5, 15000 nM.

`C[C@H](N)C(=O)N[C@H](C(=O)N1CCC[C@H]1C(=O)N[C@@H](Cc1ccccc1)C(=O)N[C@@H](Cc1ccc(O)cc1)C(=O)O)C(C)(C)C` (H-A[Tle]PFY-OH) showed a Kd in assay [1] of 40 nM.

Values taken from ChEMBL document CHEMBL1138686, “Discovery of potent antagonists of the antiapoptotic protein XIAP for the treatment of cancer” (J Med Chem, 2004).
